Measurements reported in paper PMC9640990 (Frontiers in Pharmacology, 2022).

Tested on: MDR1 mRNA
Assay: MDR1 mRNA expression in Caco-2 cells (qRT-PCR)
Format: cell-based
Settings: 48 h pretreatment, bosentan 20 μM, GA 50 μM, PCA 50 μM, PCE 100 mg/ml
Protocol: After the incubation period, cells were harvested from the Transwell inserts for RNA extraction. […] Real-time quantitative PCR (qRT-PCR) was performed on an ABI Prism 7900HT Sequence Detection System (Applied Biosystems, Foster City, CA, United States) for the analysis of MDR1 and BCRP genes. Primers of housekeeping gene β-actin was used as internal controls. […] The relative gene expression levels were determined using the comparative CT method (ΔΔCT method). The cut-off CT was set at 35 cycles for all analyses. An arbitrary classification system was assigned to the data, designating relative expression levels >2 as high mRNA expression, levels between 2 and 1 as moderate mRNA expression, levels between 1 and 0.1 as low mRNA expression and levels <0.1 as unexpressed.

## O=C(O)c1ccc(O)c(O)c1 [PCA, protocatechuic acid]
  increase of MDR1 (P-gp) mRNA expression: 3.56 fold
